The subject of one data set is VP40-APT/PY VLP budding. The class given is cell-based.
For the next data set, the target named is CRAC/Orai1 channels (Homo sapiens, UniProt Q96D31). The class given is cell-based.
The next data set has as its system Ebola VP40 (eVP40) VLPs. Format: cell-based.
The subject of data set [1] is vesicular stomatitis virus (VSV). The class given is cell-based.
Data set [2] deals with Junin virus (Candid-1 strain). Format: cell-based.
Data set [3] relates to Marburg VP40 (mVP40) VLPs. Format: cell-based.
The test system of data set [4] is HEK293T cells.
The subject of a further data set is Influenza Virus A. Format: cell-based.
The test system of data set [5] is HEK293T cells. This is another data set of the same source.
The test system of another data set is HIV-1. Format: cell-based.
Data set [6] concerns Ebola VP40 induced intracellular calcium increase. The class given is cell-based.
For a further data set, the system named is JUNV. Format: cell-based, Junin virus.
The subject of data set [7] is eVP40 GFP expressed in HEK cells. Format: cell-based.
The test system of a further data set is LASV. The class given is cell-based, Lassa fever virus.
A further data set concerns EBOV. The class given is cell-based, Ebola virus.
In the next data set the test system is MARV. The class given is cell-based, Marburg virus.
The next data set relates to retrovirus. The following applies: cited from earlier work.

The text below walks through data of patent US20170114060A1 (priority 2014, published 2017).

Molecules are shown by their SMILES. Entries after “also recorded” stand apart in the source; their conditions may differ.

CRAC/Orai1 channels, sequence (Q96D31 whole entry): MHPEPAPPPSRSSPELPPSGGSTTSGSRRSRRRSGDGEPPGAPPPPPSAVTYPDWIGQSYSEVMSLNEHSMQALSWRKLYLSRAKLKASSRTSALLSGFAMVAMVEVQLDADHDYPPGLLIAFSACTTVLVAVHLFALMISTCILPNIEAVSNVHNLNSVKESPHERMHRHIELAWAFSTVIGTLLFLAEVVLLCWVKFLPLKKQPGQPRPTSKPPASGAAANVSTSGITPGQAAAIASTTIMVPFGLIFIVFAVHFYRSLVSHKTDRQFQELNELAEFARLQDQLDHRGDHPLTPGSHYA

In the case of `NCCOB(c1ccccc1)c1ccccc1` [2-APB, 2-aminoethoxydiphenylborate], in the data set with VP40-APT/PY VLP budding, the “sensitivity of Alix Bro1-V rescue of VLP production” value is 2-APB sensitive. In addition, on CRAC/Orai1 channels, the “concentration that fully inhibited CRAC channels” value came to 50 µM and the “inhibition of store-operated Ca2+ entry via CRAC/Orai channels” value is “block store operated Ca^2+ influx; also recorded: blocked; also recorded: blocks Ca^2+ entry following Tg stimulation without affecting its release from the ER; also recorded: inhibition of Ca^2+ entry via CRAC channels”. Besides, the “viability of cells under conditions mimicking infection experiments” value in the data set with VeroE6 cells is listed as “without effect on the viability of cells”. In the data set with Ebola VP40 (eVP40) VLPs, the “effect on cellular eVP40 expression/accumulation” value was “neither 2-APB nor Synta66 inhibited cellular accumulation”; the “inhibition of eVP40 VLP formation” value is “inhibited eVP40 and mVP40 VLP budding”. In [1], the “effect on cellular expression of VSV M protein” value is listed as “only a slight effect on cellular M protein expression; also recorded: little to no effect on cellular expression of VSV M protein” and the “inhibition of live VSV budding / titers” value was “inhibited live VSV viral particle budding; also recorded: dose-dependent inhibition of VSV budding”. Moreover, in [2], the “decrease in the number of foci formed by virions released from cells” value amounted to 10 fold and the “reduction of live Junin virus (Candid-1) foci / budding” value is reported as “a similar dose-dependent decrease in JUNV budding”. Moreover, in [3], the “effect on cellular mVP40 accumulation” value is “neither 2-APB nor Synta66 inhibited cellular accumulation”; the “inhibition of mVP40 VLP budding” value is “inhibited eVP40 and mVP40 VLP budding”.

For `c1ccc(C(c2ccccc2)c2noc(C3CCNCC3)n2)cc1` [FC-2121], the “cell viability / cytotoxicity (MTT)” value in the data set with HEK293T cells [4] was “without cell toxicity”. In addition, the “inhibition of store-operated Ca2+ entry via CRAC/Orai channels” value at CRAC/Orai1 channels was “partial dose-dependent inhibition of Tg-induced calcium entry; also recorded: can block calcium influx into cells via Orai; also recorded: reduce Orai-mediated calcium entry”. In addition, the cytotoxicity result in the data set with MDCK cells and in the data set with HEK293T cells [5] was “not cytotoxic” throughout. For the same molecule, the “inhibition of eVP40 VLP formation” value in the data set with Ebola VP40 (eVP40) VLPs is “a corresponding inhibition of VLP formation; also recorded: successful inhibition of Ebola VP40 VLP production”. Also, in the data set on Influenza Virus A, the “reduction of live Influenza Virus A budding” value is listed as “reduce live Influenza Virus A budding”.

For the molecule `Cc1c(CC(C(=O)O)c2ccccc2)nn(-c2ccccc2)c1-c1ccccc1` (stereo not drawn) [FC-2122, 3-(4-methyl-1,5-diphenyl-1H-pyrazol-3-yl)-2-phenylpropanoic acid], the “cell viability / cytotoxicity (MTT)” value in the data set with HEK293T cells [4] is reported as “without cell toxicity”. At CRAC/Orai1 channels, the “inhibition of store-operated Ca2+ entry via CRAC/Orai channels” value is reported as “partial dose-dependent inhibition of Tg-induced calcium entry; also recorded: inhibits Orai-mediated calcium entry; also recorded: can block calcium influx into cells via Orai”. In the data set on HIV-1, the “inhibition of budding of live HIV-1” value is reported as “did not inhibit budding of live HIV-1”. In the data set with MDCK cells, the cytotoxicity entry is on record as “not cytotoxic”. In the data set with Ebola VP40 (eVP40) VLPs, the “cellular eVP40 expression” value is listed as “not different from mock treated cells”, the “concentrations at which VP40 expression inhibited” value is “above 10 μM” and the “inhibition of eVP40 VLP formation” value is listed as “a corresponding inhibition of VLP formation; also recorded: decreased to a comparable extent as by 2-APB; also recorded: inhibits; also recorded: successful inhibition of Ebola VP40 VLP production”. Besides, in the data set with Influenza Virus A, the “reduction of live Influenza Virus A budding” value is given as “reduce live Influenza Virus A budding”. For the same molecule, the cytotoxicity entry in the data set with HEK293T cells [5] was “not cytotoxic”.

Take `Cc1cc(CC(C(=O)O)c2ccc(Cl)cc2)nn1-c1ccc(Cl)cc1` (stereo not drawn) [FC-2399, 2-(4-Chloro-phenyl)-3-[1-(4-chloro-phenyl)-5-methyl-1H-pyrazol-3-yl]-propionic acid]: at CRAC/Orai1 channels, the “inhibition of store-operated Ca2+ entry via CRAC/Orai channels” value was “reduce Orai-mediated calcium entry”. Further, the “inhibition of budding of live HIV-1” value with HIV-1 is “reduces budding of live HIV-1”. For the same molecule, in the data set on Influenza Virus A, the “reduction of live Influenza Virus A budding” value is given as “reduce live Influenza Virus A budding”. Besides, the “inhibition of live VSV budding / titers” value in data set [1] is “significantly reduced budding of live Vesicular Stomatitis Virus in vitro in a dose-dependent manner”.

Regarding `CC(=O)N[C@@H](CS)C(=O)O` [NAC, N-acetyl cysteine], in data set [6], the “block of Ebola VP40 induced intracellular calcium increase” value was “block the Ebola VP40 induced intracellular calcium increase”.

In the case of `Cc1cc(Cc2cc(C)cc(C(C)(C)C)c2O)c(O)c(Cc2cc(C)cc(C(C)(C)C)c2O)c1` [NSC 62914], in data set [6], the “block of Ebola VP40 induced intracellular calcium increase” value is reported as “block the Ebola VP40 induced intracellular calcium increase”.

For `CC1=C(c2cnc(NC(=O)c3c(F)cccc3F)cn2)CN(c2ncc(C)s2)CC1` [R02959, 2,6-difluoro-N-{5-[4-methyl-1-(5-methyl-thiazol-2-yl)-1,2,5,6-tetrahydro-pyridin-3-yl]-pyrazin-2-yl}-benzamide], on CRAC/Orai1 channels, the “inhibition of store-operated Ca2+ entry via CRAC/Orai channels” value was “blocks Ca^2+ entry following Tg stimulation without affecting its release from the ER” and the “potency as inhibitor of Orai1 relative to 2-APB or Synta66” value was approximately 10 fold. Besides, the “inhibition of Ca2+ entry via CRAC channels” value at CRAC/Orai1 channels (5 μM) is on record as “inhibits Ca^2+ entry via CRAC channels”. Also, at CRAC/Orai1 channels (concentrations <5 μM), the “block of Ca2+ entry” value is given as 50-100 fold. In the data set on Ebola VP40 (eVP40) VLPs, the “effect on cellular eVP40 expression/accumulation” value was “without any effect on cellular VP40 expression” and the “inhibition of eVP40 VLP formation” value is recorded as “dose dependent inhibition of eVLP formation”. In addition, in the data set on Ebola VP40 (eVP40) VLPs (concentrations <5 μM), the “block of eVP40 production” value was 50-100 fold.

Regarding `COc1ccc(OC)c(-c2ccc(NC(=O)c3ccncc3F)cc2)c1` [Synta66, N-(2′,5′-dimethoxy[1,1′-biphenyl]-4-yl)-3-fluoro-4-pyridinecarboxamide], the “inhibition of store-operated Ca2+ entry via CRAC/Orai channels” value against CRAC/Orai1 channels was “blocks Ca^2+ entry following Tg stimulation without affecting its release from the ER; also recorded: inhibition of Ca^2+ entry via CRAC channels”. Further, the “inhibition of live JUNV budding and spread” value in the data set on JUNV is on record as “steep dose-dependent inhibition; also recorded: dose-dependent reduction”. For the same molecule, in [7], the “VP40-induced membrane protrusions / VLP structures at the plasma membrane” value was “not prevelant; also recorded: inhibits the formation of VP40-induced membrane protrusions; also recorded: inhibition of EBOV VP40 protrusions from the plasma membrane; also recorded: reduces Ebola VP40-mediated virus-like particle formation at the plasma membrane”; the “VP40 expression and membrane localization” value is “no difference in membrane localization of eVP40; also recorded: no apparent effect on VP40 expression or membrane localization; also recorded: does not result in altered expression of Ebola VP40 (green) at the plasma membrane”. The “inhibition of live LASV budding and spread” value in the data set with LASV is given as “steep dose-dependent inhibition; also recorded: dose-dependent reduction”. The “effect on cellular eVP40 expression/accumulation” value in the data set on Ebola VP40 (eVP40) VLPs was “neither 2-APB nor Synta66 inhibited cellular accumulation”. The “inhibition of live EBOV budding and spread” value in the data set on EBOV is reported as “steep dose-dependent inhibition; also recorded: dose-dependent reduction”. Further, in data set [1], the “effect on cellular expression of VSV M protein” value is recorded as “without affecting expression of VSV M”, the “inhibition of live VSV budding / titers” value is on record as “dose-dependent inhibition of VSV budding; also recorded: inhibited VSV titers” and the “reduction in budding of live VSV” value is “dose-dependent reduction in budding of live Vesicular Stomatitis Virus”. Besides, the “inhibition of live MARV budding and spread” value with MARV is “steep dose-dependent inhibition; also recorded: dose-dependent reduction”. Also, in data set [2], the “cellular expression of JUNV glycoprotein (GP)” value was “No effect” and the “reduction of live Junin virus (Candid-1) foci / budding” value was “dose-dependent reduction in the number of Junin foci; also recorded: reduces the number of JUNV foci in a dose-dependent manner”. In [3], the “effect on cellular mVP40 accumulation” value is on record as “neither 2-APB nor Synta66 inhibited cellular accumulation”.

With `Nc1ccc(C(=O)Nc2cccc(-c3nc(N4CCOCC4)c4oc5ncccc5c4n3)c2)cn1` [YM201636], the retrovirus budding entry with retrovirus is on record as “inhibited retrovirus budding”. Also, the “inhibition of eVP40 VLP formation” value in the data set on Ebola VP40 (eVP40) VLPs is listed as “dose-dependent reduction of Ebola VP40 VLP production”.

For the molecule `C[C@H](CCC(=O)O)C[C@H](C)C[C@H](C)C(=O)/C=C(\O)[C@H](C)C[C@H](C)C/C=C/[C@@H](C)[C@@H](O)[C@@H](C)[C@@H](O)C[C@@H]1CC[C@@](C)([C@H]2CC[C@@](C)([C@@H](C)O)O2)O1` [ionomycin], the “rescue of VP40-APT/PY VLP budding mediated by the Bro1-V fragment of Alix” value with VP40-APT/PY VLP budding was “did not enhance rescue”.
